Class and IC50 data for 34 molecules are collected here from US20070010671A1, “Novel quinazoline derivatives and methods of treatment related to the use thereof” (priority 2003, published 2007).

Structures are written as SMILES.

For the first assay, the target named is MCH receptor (Homo sapiens, UniProt Q99705). In words: High throughput functional screening FLIPR/FDSS6000: inhibition of MCH-evoked intracellular Ca2+ changes. Format: cell-based. The following applies: class by percent of control at 10^-7 M or IC50. Put shortly:
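Constitutively active non-endogenous MCH-R cells; Fluo4-AM 4 μM, 2.5 mM probenecid, 1 hr, 37° C; cpd 3 min, 37° C; MCH 50 nM (antagonist mode); kinetic Ca2+ read Ex488/Em530, 290 s.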
For the molecule `CN(C)c1nc(N[C@H]2CC[C@@H](CNC(=S)Nc3cc(F)cc(F)c3)CC2)nc2ccccc12` [compound 648], the class is reported as 3 (Class 3: The value of percent of control at 10^−7 M was more than 60% or the value of IC50 was more than 200 nM.).
Still for that read-out and setting: the figure for `CCc1ccccc1NC(=S)N[C@H]1CC[C@@H](Nc2nc(N(C)C)c3ccccc3n2)CC1` [compound 216] is 1 (Class 1: The value of percent of control at 10^−7 M was less than 40% or the value of IC50 was less than 50 nM.); for `CN(C)c1nc(N[C@H]2CC[C@@H](CNC(=O)Nc3cc(F)cc4c3OCOC4)CC2)nc2ccccc12` [compound 769, N-[(cis-4-{[4-(dimethylamino)quinazolin-2-yl]amino}cyclohexyl)methyl]-N′-(6-fluoro-4H-1,3-benzodioxin-8-yl)urea] it is 2 (Class 2: The value of percent of control at 10^−7 M was from 40% to 60% or the value of IC50 was from 50 nM to 200 nM.).
Still for that read-out and setting: the figure for `CN(C)c1nc(N[C@H]2CC[C@@H](CNC(=S)Nc3ccc(NC(=O)OC(C)(C)C)cc3)CC2)nc2ccccc12` [compound 664] is 3 (Class 3: The value of percent of control at 10^−7 M was more than 60% or the value of IC50 was more than 200 nM.); for `CN(C)c1nc(N[C@H]2CC[C@@H](CNC(=O)Nc3c(F)cc(Br)cc3F)CC2)nc2ccccc12` [compound 542, N-(4-bromo-2,6-difluorophenyl)-N′-[(cis-4-{[4-(dimethylamino)quinazolin-2-yl]amino}cyclohexyl)methyl]urea] it is 1 (Class 1: The value of percent of control at 10^−7 M was less than 40% or the value of IC50 was less than 50 nM.).
Take `CN(C)c1nc(N[C@H]2CC[C@@H](CNC(=S)Nc3ccc(F)cc3F)CC2)nc2ccccc12` [compound 635]: the class is 3 (Class 3: The value of percent of control at 10^−7 M was more than 60% or the value of IC50 was more than 200 nM.).
Still for that read-out and setting: the figure for `CN(C)c1nc(N[C@H]2CC[C@@H](CNC(=O)NC3CCN(C(=O)OCc4ccccc4)CC3)CC2)nc2ccccc12` [compound 770] is 3 (Class 3: The value of percent of control at 10^−7 M was more than 60% or the value of IC50 was more than 200 nM.); for `CCOC(=O)c1c(NC(=S)N[C@H]2CC[C@@H](Nc3nc(N(C)C)c4ccccc4n3)CC2)sc2c1CCCC2` [compound 380] it is 3 (Class 3: The value of percent of control at 10^−7 M was more than 60% or the value of IC50 was more than 200 nM.); for `CN(C)c1nc(N[C@H]2CC[C@@H](CNC(=S)Nc3ccc(Br)cc3F)CC2)nc2ccccc12` [compound 658] it is 3 (Class 3: The value of percent of control at 10^−7 M was more than 60% or the value of IC50 was more than 200 nM.).
The same measure, in the same setting: the result for `Cc1cc(Br)ccc1NC(=S)NC[C@H]1CC[C@@H](Nc2nc(N(C)C)c3ccccc3n2)CC1` [compound 692] reads 3 (Class 3: The value of percent of control at 10^−7 M was more than 60% or the value of IC50 was more than 200 nM.); that for `CN(C)c1nc(N[C@H]2CC[C@@H](CNC(=S)NCCC3=CCCCC3)CC2)nc2ccccc12` [compound 779], 3 (Class 3: The value of percent of control at 10^−7 M was more than 60% or the value of IC50 was more than 200 nM.).
For `Cc1ccc(NC(=S)NC[C@H]2CC[C@@H](Nc3nc(N(C)C)c4ccccc4n3)CC2)c([N+](=O)[O-])c1` [compound 703], the class is reported as 3 (Class 3: The value of percent of control at 10^−7 M was more than 60% or the value of IC50 was more than 200 nM.).
On the same count and under the same terms, the result for `CN(C)c1nc(N[C@H]2CC[C@@H](CNC(=O)Nc3c(Cl)c(Cl)cc(Cl)c3Cl)CC2)nc2ccccc12` [compound 472, N-[(cis-4-{[4-(dimethylamino)quinazolin-2-yl]amino}cyclohexyl)methyl]-N′-(2,3,5,6-tetrachlorophenyl)urea] reads 2 (Class 2: The value of percent of control at 10^−7 M was from 40% to 60% or the value of IC50 was from 50 nM to 200 nM.).
On to `CN(C)c1nc(N[C@H]2CC[C@@H](CNC(=O)Nc3ccc(Br)cc3Br)CC2)nc2ccccc12` [compound 477], for which the class is on record as 3 (Class 3: The value of percent of control at 10^−7 M was more than 60% or the value of IC50 was more than 200 nM.).
`Cc1cccc(NC(=S)NC[C@H]2CC[C@@H](Nc3nc(N(C)C)c4ccccc4n3)CC2)c1C` [compound 780]: the class was 3 (Class 3: The value of percent of control at 10^−7 M was more than 60% or the value of IC50 was more than 200 nM.).
Turning to `CN(C)c1nc(N[C@H]2CC[C@@H](CNC(=O)Nc3cccc(C#N)c3)CC2)nc2ccccc12` [compound 418, N-(3-cyanophenyl)-N′-[(cis-4-{[4-(dimethylamino)quinazolin-2-yl]amino}cyclohexyl)methyl]urea], the class was 2 (Class 2: The value of percent of control at 10^−7 M was from 40% to 60% or the value of IC50 was from 50 nM to 200 nM.).
Still for that read-out and setting: the result for `Cc1ccc(C)c(NC(=O)NC[C@H]2CC[C@@H](Nc3nc(N(C)C)c4ccccc4n3)CC2)c1` [compound 481] reads 3 (Class 3: The value of percent of control at 10^−7 M was more than 60% or the value of IC50 was more than 200 nM.).
For the molecule `Cc1cc(Br)cc(C)c1NC(=O)N[C@H]1CC[C@@H](Nc2nc(N(C)C)c3ccccc3n2)CC1` [compound 333, N-(4-bromo-2,6-dimethylphenyl)-N′-(cis-4-{[4-(dimethylamino)quinazolin-2-yl]amino}cyclohexyl)urea], the class is 1 (Class 1: The value of percent of control at 10^−7 M was less than 40% or the value of IC50 was less than 50 nM.).
Still for that read-out and setting: the figure for `COc1ccc(Cl)cc1NC(=S)N[C@H]1CC[C@@H](Nc2nc(N(C)C)c3ccccc3n2)CC1` [compound 282] is 3 (Class 3: The value of percent of control at 10^−7 M was more than 60% or the value of IC50 was more than 200 nM.).

Still in this assay, the particulars now being: class by percent of control at 10^-7 M or by IC50; read-out: class.
Take `COc1ccc(NC(=O)N[C@H]2CC[C@@H](Nc3nc(N(C)C)c4ccccc4n3)CC2)cc1` [compound 43, N-(cis-4-{[4-(dimethylamino)quinazolin-2-yl]amino}cyclohexyl)-N′-(4-methoxyphenyl)urea]: the IC50 fell in the range of 50 to 200 nM.
With `COc1ccc([N+](=O)[O-])cc1NC(=O)N[C@H]1CC[C@@H](Nc2nc(N(C)C)c3ccccc3n2)CC1` [compound 106], the IC50 was greater than 200 nM.
On to `CN(C)c1nc(N[C@H]2CC[C@@H](NC(=O)Nc3ccccc3Oc3ccccc3)CC2)nc2ccccc12` [compound 115, N-(cis-4-{[4-(dimethylamino)quinazolin-2-yl]amino}cyclohexyl)-N′-(2-phenoxyphenyl)urea], for which the IC50 lay in the range of 50 to 200 nM.
On the same count and under the same terms, the result for `CN(C)c1nc(N[C@H]2CC[C@@H](NC(=O)Nc3c(Cl)c(Cl)cc(Cl)c3Cl)CC2)nc2ccccc12` [compound 72, N-(cis-4-{[4-(dimethylamino)quinazolin-2-yl]amino}cyclohexyl)-N′-(2,3,5,6-tetrachlorophenyl)urea] reads less than 50 nM.
As to `CN(C)c1nc(N[C@H]2CC[C@@H](CNC(=O)OCc3ccc([N+](=O)[O-])cc3)CC2)nc2ccccc12` [compound 875], the IC50 was in the range of 50 to 200 nM.
On the same count and under the same terms, the result for `CN(C)c1nc(N[C@H]2CC[C@@H](NC(=S)Nc3ccc(F)cc3)CC2)nc2ccccc12` [compound 175, N-(cis-4-{[4-(dimethylamino)quinazolin-2-yl]amino}cyclohexyl)-N′-(4-fluorophenyl)thiourea] reads 50 to 200 nM.

The assay is the same for the next values; noted with them: class by percent of control at 10^−7 M or by IC50; read-out: class.
With `CN(C)c1nc(N[C@H]2CC[C@@H](C(=O)NCc3cccc(I)c3)CC2)nc2cc(F)c(F)cc12` [Example 1006, cis-4-{[4-(dimethylamino)-6,7-difluoroquinazolin-2-yl]amino}-N-(3-iodobenzyl)cyclohexanecarboxamide], the IC50 was 50 to 200 nM.
Same read-out and setting: the figure for `CN(C)c1nc(N[C@H]2CC[C@@H](CNC(=O)Nc3cc(Cl)ccc3Cl)CC2)nc2ccccc12` [Example 1027, N-(2,5-dichlorophenyl)-N′-[(cis-4-{[4-(dimethylamino)quinazolin-2-yl]amino}cyclohexyl)methyl]urea] is 50 to 200 nM; for `CC(C)CC(=O)Nc1cccc(C(=O)N[C@H]2CC[C@@H](Nc3nc(N(C)C)c4ccccc4n3)CC2)c1` [Example 1201, N-(cis-4-{[4-(dimethylamino)quinazolin-2-yl]amino}cyclohexyl)-3-[(3-methylbutanoyl)amino]benzamide] it is 50 to 200 nM; for `CN(C)c1nc(N[C@H]2CC[C@@H](CNC(=O)Nc3ccc(Cl)c(Cl)c3)CC2)nc2ccccc12` [Example 1026, N-(3,4-dichlorophenyl)-N′-[(cis-4-{[4-(dimethylamino)quinazolin-2-yl]amino}cyclohexyl)methyl]urea] it is 50 to 200 nM.
The same measure, in the same setting: the result for `CC(NC(=O)[C@H]1CC[C@@H](Nc2nc(N(C)C)c3cc(F)c(F)cc3n2)CC1)c1ccc(Br)cc1` (relative stereo) [Example 1008, cis-N-[1-(4-bromophenyl)ethyl]-4-{[4-(dimethylamino)-6,7-difluoroquinazolin-2-yl]amino}cyclohexanecarboxamide] reads 50 to 200 nM.
Take `CN(C)c1nc(N[C@H]2CC[C@@H](CNC(=O)c3cccc(C(F)(F)F)c3)C2)nc2ccccc12` [Example 1127, N-[((1R,3S)-3-{[4-(dimethylamino)quinazolin-2-yl]amino}cyclopentyl)methyl]-3-(trifluoromethyl)benzamide]: the IC50 is less than 50 nM.
Same read-out and setting: the figure for `CN(C)c1nc(N[C@H]2CC[C@@H](NC(=O)CN(C)c3ccccc3)CC2)nc2ccccc12` [Example 1088, N-(cis-4-{[4-(dimethylamino)quinazolin-2-yl]amino}cyclohexyl)-N2-methyl-N2-phenylglycinamide] is less than 50 nM; for `Cc1ccc(OCC(=O)N[C@H]2CC[C@@H](Nc3nc(N(C)C)c4ccccc4n3)CC2)cc1C` [Example 1076, N-(cis-4-{[4-(dimethylamino)quinazolin-2-yl]amino}cyclohexyl)-2-(3,4-dimethylphenoxy)acetamide] it is greater than 200 nM.
Regarding `CN(C)c1nc(N[C@H]2CC[C@@H](CNC(=O)Nc3ccccc3Cl)CC2)nc2ccccc12` [Example 1021, N-(2-chlorophenyl)-N′-[(cis-4-{[4-(dimethylamino)quinazolin-2-yl]amino}cyclohexyl)methyl]urea], the IC50 lay in the range of 50 to 200 nM.
